Measurements published in patent US20190275002A1 (priority 2018, published 2019).
Where two headings read alike, the source gives them in different places.

What was measured:
[1] = test system: influenza A virus (strain A/Hong Kong/X31/68 H3N2); details: lungs of infected mice, 1-MT in drinking water; cited from earlier work
[2] = test system: influenza A virus (strain A/Puerto Rico/8/1934/H1N1); assay: Viral load in lungs of PR8-infected mice by plaque assay on MDCK cells; format: in vivo, C57BL/6J mice; details: for Average viral load (pfu): substances in drinking water (experimental group also intraperitoneal injection)
[3] = test system: influenza A virus (strain A/Aichi/2/1968 H3N2); details: 0.7 M arginine-containing solution, cited from earlier work
[4] = test system: influenza A virus (strain A/Kumamoto/Y5/67 H2N2); details: mouse, in vivo; cited from earlier work
[5] = mice lungs, seventh day after intranasal inoculation with 200 pfu PR8 virus
[6] = mice lungs, seventh day after virus inoculation

Cn1cc(C[C@H](N)C(=O)O)c2ccccc21 [Inhibitor group 3, 1-methyl-tryptophan]
number of activated and functional CD4+ T-cells, influenza-specific CD8+ T-cells and effector memory cells [1]: increased significantly
Average viral load (pfu) [2, 5]: 4.37 × 10^3 pfu
average viral load compared with the control group [2, 6]: significantly lower

N=C(N)NCCC[C@H](N)C(=O)O [arginine]
virus inactivation effect ([3]; pH 4.5, on ice for 30 to 60 minutes): most potent virus inactivation effect
virus inactivation effect ([3]; pH 5.5, on ice for 30 to 60 minutes): no virus inactivation effect was detected

CN=C(N)NCCC[C@H](N)C(=O)O.O=C(O)CC(O)(CC(=O)O)C(=O)O [Inhibitor group 1, L-NG-monomethyl arginine citrate]
production of NO-hemoglobin in the lungs [4]: inhibit
survival rate [4]: effectively increasing
Average viral load (pfu) ([2]; […]): 4.30 × 10^3 pfu
average viral load compared with the control group ([2]; mouse, in vivo): significantly lower

N=C(NO)NCC[C@H](N)C(=O)O [Inhibitor group 2, N^ω-hydroxy-nor-L-arginine acetate]
Average viral load (pfu) [2, 5]: 2.47 × 10^3 pfu
average viral load compared with the control group [2, 6]: significantly lower
